The subject of one experiment is SN40R2. The experiment can be described thus: Protocol B: SN40R2 CellTiter-Glo cell viability. The note with it: 72 h.
The subject of the next experiment is SJSA-1. The experiment can be described thus: Protocol B: SJSA-1 CellTiter-Glo cell viability. A general note: ATP-based viability assays read luminescence as a measure of living cells.
For experiment [1], the system named is SJSA-1 (MDM2 amplified, p53 wild-type osteosarcoma). The experiment can be described thus: Protocol A: SJSA-1 growth inhibition (SRB). The note with it: Homo sapiens, SJSA-1, 72 h.
Experimental: Protocol A: SJSA-1 and SN40R2 Assays
(§1) Following incubation with the SRB dye at room temperature for 30 min, the plates were washed with 1% acetic acid and left to dry. […] The GI50 was calculated by non-linear regression analysis of the data using Prism v4.0 statistical software.
The test system of experiment [2] is SN40R2 (MDM2 amplified, p53 mutated osteosarcoma). Kind of experiment: Protocol A: SN40R2 growth inhibition (SRB). The note with it: 72 h; for inhibition at 30 µM: read-out: SN40R2 (Protocol A) % at concentration.
Experimental: Protocol A: SJSA-1 and SN40R2 Assays
as §1
Experiment [3] concerns the target MDM2-p53 interaction (in vitro translated MDM2, biotinylated IP3 peptide) (Homo sapiens, UniProt Q00987). Kind of experiment: MDM2-p53 interaction 96-well plate binding assay (ELISA).
Experimental: The ELISA assay was performed in streptavidin coated plates which were preincubated with 200 μl per well of 1 μg ml^−1 biotinylated IP3 peptide. The plates were ready to use for MDM2 binding after washing the plate with PBS.
The unbound secondary antibody was removed by washing three times with TBS-Tween. The bound HRP activity was measured by enhanced chemiluminesence (ECL™, Amersham Biosciences) using the oxidation of the diacylhydrazide substrate, luminol, to generate a quantifiable light signal. The percentage of MDM2 inhibition at a given concentration is calculated as the [1−(RLU detected in the compound treated sample−RLU negative DMSO control)÷(RLU of DMSO positive and negative controls)]×100 or as the (RLU detected in the compound treated sample÷RLU of DMSO controls)×100. The IC50 was calculated using a plot of % MDM2 inhibition vs concentration and is the average of two or three independent experiments.
Setting [4] is: read-out: SN40R2 IC50 (Protocol B), SN40R2 cells, CellTiter-Glo, 72 hrs.
Setting [5] is: read-out: SJSA1 IC50 (Protocol B), SJSA-1 cells, CellTiter-Glo, 72 hrs.
Where [6] appears, read: read-out: SN40R2 IC50 (Protocol B).
Where [7] appears, read: read-out: SJSA-1 IC50 (Protocol A), SJSA-1 cells, SRB, 72 hrs.
Setting [8] is: Homo sapiens, SJSA-1, 72 h, read-out: SJSA1 IC50 (Protocol B), SJSA-1 cells, CellTiter-Glo, 72 hrs.
Setting [9] is: read-out: SN40R2 IC50 (μM) (Protocol B).
Setting [10] is: read-out: SJSA-1 IC50 (μM) (Protocol A), SJSA-1, Protocol A (SRB), 72 hrs.
[11] abbreviates: read-out: SN40R2 IC50 (μM) (Protocol A).
[12] abbreviates: Homo sapiens, SJSA-1, 72 h, read-out: SJSA1 IC50 (μM) (Protocol B), SJSA-1, Protocol B (CellTiter-Glo), 72 hrs.

Like-named read-outs stand apart in the source and are kept apart here.

Chain of MDM2-p53 interaction (in vitro translated MDM2, biotinylated IP3 peptide) (Q00987 whole entry): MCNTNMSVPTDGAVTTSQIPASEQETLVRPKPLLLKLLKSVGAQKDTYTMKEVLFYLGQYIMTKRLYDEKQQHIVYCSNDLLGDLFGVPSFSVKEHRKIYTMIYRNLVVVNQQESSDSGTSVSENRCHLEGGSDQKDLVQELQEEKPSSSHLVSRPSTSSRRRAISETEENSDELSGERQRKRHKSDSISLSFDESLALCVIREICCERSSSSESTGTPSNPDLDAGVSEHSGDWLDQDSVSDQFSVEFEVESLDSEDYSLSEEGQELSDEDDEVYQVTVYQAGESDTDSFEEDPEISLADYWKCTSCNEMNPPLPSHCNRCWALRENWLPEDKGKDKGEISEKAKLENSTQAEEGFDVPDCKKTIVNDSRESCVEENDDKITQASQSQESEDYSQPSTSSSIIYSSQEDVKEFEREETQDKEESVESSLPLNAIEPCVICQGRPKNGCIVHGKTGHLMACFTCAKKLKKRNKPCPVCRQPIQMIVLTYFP

Regarding `CO[C@]1(c2ccc(Cl)cc2)c2c(F)cc(C(C)(O)c3cn(C)c(C)n3)cc2C(=O)N1Cc1ccc(Cl)cn1` (single isomer, unassigned) [Example 162], the results for the IC50 in the experiment on SN40R2 (setting [4]) and in the experiment on SJSA-1 (setting [5]) were 13 µM and 0.22 µM, respectively.
With `CC(=O)N1CCC(C(C)(O)c2cc(F)c3c(c2)C(=O)N(Cc2ccc(Cl)cn2)[C@@]3(OCC2(C#N)CC2)c2ccc(Cl)cc2)CC1` (single isomer, unassigned) [Example 301], the IC50 was 12 µM in the experiment with SN40R2 (setting [6]), 0.07 µM in experiment [1] (setting [7]), 0.036 µM in the experiment on SJSA-1 (setting [8]) and 28 µM in experiment [2] (read-out: SN40R2 IC50 (Protocol A)). The inhibition at 0.001 µM in experiment [3] (@ 0.0010 μM, read-out: MDM2 % @ concentration) stood at 75%.
Consider `CO[C@]1(c2ccc(Cl)cc2)c2c(F)cc(C(C)(O)C3CCN(C)CC3)cc2C(=O)N1Cc1ccc(Cl)cn1` (single isomer, unassigned) [Example 304], for which, in the experiment on SN40R2 (setting [4]), the IC50 is 9 µM.
Take `CO[C@]1(c2ccc(Cl)cc2)c2c(F)cc(C(C)(O)C3CN(C)C3)cc2C(=O)N1Cc1ccc(Cl)cn1` (single isomer, unassigned) [Example 307]: the IC50 in the experiment with SN40R2 (setting [4]) is 11 µM; in the experiment on SJSA-1 (setting [8]), 1.9 µM.
Turning to `CC(O)(c1cc(F)c2c(c1)C(=O)N(Cc1ccc(Cl)cn1)[C@@]2(OCC1(C#N)CC1)c1ccc(Cl)cc1)C1CCN(CCO)CC1` (single isomer, unassigned) [Example 420], the results for the IC50 in the experiment on SN40R2 (setting [6]) and with SJSA-1 (setting [8]) were 4.4 µM and 0.87 µM, respectively.
As for `CO[C@]1(c2ccc(Cl)cc2)c2c(F)cc(C(C)(O)c3cnn(C4CN(C(=O)OC(C)(C)C)C4)c3)cc2C(=O)N1Cc1ccc(Cl)cn1` (single isomer, unassigned) [Example 458], in the experiment with SN40R2 (setting [9]), the IC50 came out at 12 µM.
For `CCC(O)(c1cc(F)c2c(c1)C(=O)N(Cc1ncc(Cl)cn1)[C@@]2(O[C@H]1CCOC1)c1ccc(Cl)cc1)C1(F)CCNCC1` (single isomer, unassigned) [Example 541], the IC50 in the experiment on SN40R2 (setting [9]) was 10 µM; in experiment [1] (setting [10]), 0.19 µM; in experiment [2] (setting [11]), 13 µM.
In the case of `[2H]C([2H])(O)C1(C([2H])([2H])O[C@]2(c3ccc(Cl)cc3)c3c(F)cc(C(C)(C)O)cc3C(=O)N2Cc2ccc(C#N)cn2)CC1` [Example 5, 6-{[(1R)-1-(4-Chlorophenyl)-7-fluoro-1-({1-[hydroxy(^2H2)methyl]cyclopropyl}(^2H2)methoxy)-5-(2-hydroxypropan-2-yl)-3-oxo-2,3-dihydro-1H-isoindol-2-yl]methyl}pyridine-3-carbonitrile], the IC50 in experiment [1] (setting [7]) was determined as 0.2 µM; in the experiment with SJSA-1 (setting [8]), 0.28 µM; in experiment [3], 0.0038 µM. Also, in experiment [2], the inhibition at 30 µM was found to be 20%.
In the same order, the values of `CC(C)(O)c1cc(F)c2c(c1)C(=O)N(Cc1ccc(C#N)cn1)[C@@]2(OCC1(CO)CC1)c1ccc(Cl)cc1` [Example 36, 6-{[(1R)-1-(4-chlorophenyl)-7-fluoro-1-{[1-(hydroxymethyl)cyclopropyl]methoxy}-5-(2-hydroxypropan-2-yl)-3-oxo-2,3-dihydro-1H-isoindol-2-yl]methyl}pyridine-3-carbonitrile] are 0.21 µM, 0.18 µM, 0.0051 µM and 13%.
On to `CO[C@]1(c2ccc(Cl)cc2)c2c(F)cc(C(C)(O)c3ncc[nH]3)cc2C(=O)N1Cc1ccc(Cl)cn1` (stereo partly drawn) [Example 163, (3R)-3-(4-chlorophenyl)-2-[(5-chloropyridin-2-yl)methyl]-4-fluoro-6-[1-hydroxy-1-(1H-imidazol-2-yl)ethyl]-3-methoxy-2,3-dihydro-1H-isoindol-1-one], for which the IC50 amounted to 13 µM in the experiment on SN40R2 (setting [4]) and 3.1 µM in the experiment with SJSA-1 (setting [8]).
In the case of `CO[C@]1(c2ccc(Cl)cc2)c2c(F)cc(C(C)(O)c3nccs3)cc2C(=O)N1Cc1ccc(Cl)cn1` (stereo partly drawn) [Example 165, (3R)-3-(4-Chlorophenyl)-2-[(5-chloropyridin-2-yl)methyl]-4-fluoro-6-[1-hydroxy-1-(1,3-thiazol-2-yl)ethyl]-3-methoxy-2,3-dihydro-1H-isoindol-1-one], the IC50 came to 13 µM with SN40R2 (setting [4]) and 1.4 µM in the experiment on SJSA-1 (setting [5]).
Consider `CO[C@]1(c2ccc(Cl)cc2)c2c(F)cc(C(C)(O)C3CCN(c4ncccn4)CC3)cc2C(=O)N1Cc1ccc(Cl)cn1` (stereo partly drawn) [Example 286, (3R)-3-(4-chlorophenyl)-2-[(5-chloropyridin-2-yl)methyl]-4-fluoro-6-{1-hydroxy-1-[1-(pyrimidin-2-yl)piperidin-4-yl]ethyl}-3-methoxy-2,3-dihydro-1H-isoindol-1-one], for which the IC50 with SN40R2 (setting [4]) amounted to 12 µM.
Consider `CO[C@]1(c2ccc(Cl)cc2)c2c(F)cc(C(C)(O)C3CCN(C(=O)CN(C)C)CC3)cc2C(=O)N1Cc1ccc(Cl)cn1` (stereo partly drawn) [Example 299, (3R)-3-(4-chlorophenyl)-2-[(5-chloropyridin-2-yl)methyl]-6-(1-{1-[2-(dimethylamino)acetyl]piperidin-4-yl}-1-hydroxyethyl)-4-fluoro-3-methoxy-2,3-dihydro-1H-isoindol-1-one], for which the IC50 in the experiment with SN40R2 (setting [4]) was 8 µM; in the experiment on SJSA-1 (setting [8]) it was 2 µM.
Turning to `CCC(O)(c1cc(F)c2c(c1)C(=O)N(Cc1ncc(C#N)cn1)[C@@]2(OC)c1ccc(Cl)cc1)[C@H]1CC[C@H](O)CC1` (stereo partly drawn) [Example 504, 2-{[(1R)-1-(4-chlorophenyl)-7-fluoro-5-{1-hydroxy-1-[trans-4-hydroxycyclohexyl]propyl}-1-methoxy-3-oxo-2,3-dihydro-1H-isoindol-2-yl]methyl}pyrimidine-5-carbonitrile], the IC50 in experiment [1] (setting [10]) was 0.039 µM; in the experiment on SJSA-1 (setting [12]), 0.034 µM; in experiment [2] (setting [11]) it was 48 µM.
In the same order, the values of `CC[C@@](O)(c1cc(F)c2c(c1)C(=O)N(Cc1ncc(Cl)cn1)[C@@]2(OCC1(CO)CC1)c1ccc(Cl)cc1)C1CCN(C)CC1` [Example 556, (3R)-3-(4-chlorophenyl)-2-[(5-chloropyrimidin-2-yl)methyl]-4-fluoro-6-[(1S)-1-hydroxy-1-(1-methylpiperidin-4-yl)propyl]-3-{[1-(hydroxymethyl)cyclopropyl]methoxy}-2,3-dihydro-1H-isoindol-1-one] are 0.056 µM, 0.0064 µM and 27 µM.

The IC50 is the midpoint of a concentration-inhibition curve.
